Experimental data published in patent US20240150293A1, “SPIROCYCLOHEXANE DERIVATIVES, PHARMACEUTICAL COMPOSITIONS CONTAINING THEM AND THEIR USES AS ANTI-APOPTOTIC INHIBITORS” (LES LABORATOIRES SERVIER, priority 2021, published 2024).

Biological target: Mcl-1 protein (UniProtKB Q07820) (Homo sapiens (Human), UniProt Q07820)
Experiment: Inhibition of Mcl-1 by the fluorescence polarisation assay (Example A, Method A)
Format: binding
Settings: fluorescence polarization assay
Procedure, shortened: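 Protein (5 nM) and fluorescein-tagged peptide tracer (1 nM) incubated with 11-point compound series for 2 h at room temperature in HEPES/NaCl/Tween 20 buffer, pH 7.4, 5% DMSO. Displacement read as decrease in polarisation; IC50 fitted by 4-parameter logistic, converted to Ki (cKi or eKi).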

Sequence of Mcl-1 protein (Q07820 whole entry): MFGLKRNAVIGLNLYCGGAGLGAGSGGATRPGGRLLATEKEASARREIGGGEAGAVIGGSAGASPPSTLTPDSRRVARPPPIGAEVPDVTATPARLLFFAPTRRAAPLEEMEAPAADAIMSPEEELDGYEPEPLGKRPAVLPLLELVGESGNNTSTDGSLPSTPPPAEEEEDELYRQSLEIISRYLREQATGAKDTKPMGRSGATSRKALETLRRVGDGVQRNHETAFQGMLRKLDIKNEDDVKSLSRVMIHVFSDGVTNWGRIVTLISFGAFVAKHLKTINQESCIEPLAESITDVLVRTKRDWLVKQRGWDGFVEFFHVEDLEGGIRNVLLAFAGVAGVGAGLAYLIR

Compound | Ki [µM]
Cc1cnccc1OC[C@H](C)CC1Cc2ccccc2[C@]12CC[C@@](Nc1cccc(Cl)c1)(C(=O)O)CC2 (stereo partly drawn) [Example 576, (1r,4R)-4-(3-chloroanilino)-2′-{(2R)-2-methyl-3-[(3-methylpyridin-4-yl)oxy]propyl}-2′,3′-dihydrospiro[cyclohexane-1,1′-indene]-4-carboxylic acid] | 0.124
Cc1cncnc1OCCCC1Cc2ccccc2[C@]12CC[C@@](Nc1cccc(Cl)c1)(C(=O)O)CC2 (stereo partly drawn) [Example 441, (1r,4r)-4-(3-chloroanilino)-2′-{3-[(5-methylpyrimidin-4-yl)oxy]propyl}-2′,3′-dihydrospiro[cyclohexane-1,1′-indene]-4-carboxylic acid] | 0.0691
COc1cccc(N2C(=O)c3ccccc3[C@]23CC[C@@](Nc2cccc(Br)c2)(C(=O)O)CC3)c1 [Example 30, (1s,4s)-4-(3-bromoanilino)-2′-(3-methoxyphenyl)-3′-oxo-2′,3′-dihydrospiro[cyclohexane-1,1′-isoindole]-4-carboxylic acid] | 9.25
Cc1ccc(S(=O)(=O)N2Cc3ccccc3C23CCC(Nc2cccc(Cl)c2)(C(=O)O)CC3)cc1 (single isomer, unassigned) [Example 28, 4-(3-chloroanilino)-2′-(4-methylbenzene-1-sulfonyl)-2′,3′-dihydrospiro[cyclohexane-1,1′-isoindole]-4-carboxylic acid] | 14.8
O=C(O)[C@]1(Nc2cccc(Cl)c2)CC[C@]2(CC1)C(/C=C/CC1CCCC1)=Cc1ccccc12 [Example 152, (1r,4r)-4-(3-chloroanilino)-2′-[(1E)-3-cyclopentylprop-1-en-1-yl]spiro[cyclohexane-1,1′-indene]-4-carboxylic acid] | 0.609
CCC1=Cc2ccccc2[C@]12CC[C@](Nc1cccc(Br)c1)(C(=O)O)CC2 [Example 146, (1s,4s)-4-(3-bromoanilino)-2′-ethylspiro[cyclohexane-1,1′-indene]-4-carboxylic acid] | 6.92
O=C(O)C1(Nc2cccc(Br)c2)CCC2(CC1)C(c1cc(Cl)cc(Cl)c1)=Cc1ccccc12 (single isomer, unassigned) [Example 236, 4-(3-bromoanilino)-2′-(3,5-dichlorophenyl)spiro[cyclohexane-1,1′-indene]-4-carboxylic acid] | 27.1
O=C(O)[C@]1(Nc2cccc(Cl)c2)CC[C@]2(CC1)C(c1cccc(OC(F)(F)F)c1)=Cc1ccccc12 [Example 314, (1s,4s)-4-(3-chloroanilino)-2′-[3-(trifluoromethoxy)phenyl]spiro[cyclohexane-1,1′-indene]-4-carboxylic acid] | 0.528
Cc1ccc(C2=Cc3ccccc3[C@]23CC[C@@](Nc2cccc(Cl)c2)(C(=O)O)CC3)cc1 [Example 297, (1s,4s)-4-(3-chloroanilino)-2′-(4-methylphenyl)spiro[cyclohexane-1,1′-indene]-4-carboxylic acid] | 2.37
CC(=O)c1ccc2c(c1)[C@]1(CC[C@@](Nc3cccc(Cl)c3)(C(=O)O)CC1)C(Br)=C2 [Example 132, (1s,4s)-6′-acetyl-2′-bromo-4-(3-chloroanilino)spiro[cyclohexane-1,1′-indene]-4-carboxylic acid] | 0.15
O=C(O)[C@]1(Nc2cccc(Cl)c2)CC[C@@]2(CC1)c1ccccc1CC2c1cccc(OCC2CC2)c1 (single isomer, unassigned) [Example 354, (1r,4r)-4-(3-chloroanilino)-2′-[3-(cyclopropylmethoxy)phenyl]-2′,3′-dihydrospiro[cyclohexane-1,1′-indene]-4-carboxylic acid] | 0.402
O=C(O)[C@]1(Nc2cccc(Cl)c2)CC[C@@]2(CC1)c1ccccc1CC2[C@H]1C[C@@H]1COc1cccnc1 (single isomer, unassigned) [Example 116, (1r,4r)-4-(3-chloroanilino)-2′-[(1R*,2S*)-2-{[(pyridin-3-yl)oxy]methyl}cyclopropyl]-2′,3′-dihydrospiro[cyclohexane-1,1′-indene]-4-carboxylic acid] | 0.882
COc1ccc(C2=Cc3ccccc3[C@]23CC[C@](Nc2cccc(Cl)c2)(C(=O)O)CC3)cc1Cl [Example 226, (1r,4r)-4-(3-chloroanilino)-2′-(3-chloro-4-methoxyphenyl)spiro[cyclohexane-1,1′-indene]-4-carboxylic acid] | 23.7
Cc1ccc(C2Cc3ccccc3C23CCC(Nc2cccc(Br)c2)(C(=O)O)CC3)o1 (stereo not drawn) [Example 239, 4-(3-bromoanilino)-2′-(5-methylfuran-2-yl)-2′,3′-dihydrospiro[cyclohexane-1,1′-indene]-4-carboxylic acid] | 0.301
CC1=Nc2ccccc2[C@]12CC[C@](Nc1cccc(Br)c1)(C(=O)O)CC2 [Example 22, (1r,4r)-4-(3-bromoanilino)-2′-methylspiro[cyclohexane-1,3′-indole]-4-carboxylic acid] | 24.1
CC1N(C)c2ccccc2[C@]12CC[C@@](Nc1cccc(Br)c1)(C(=O)O)CC2 (stereo partly drawn) [Example 24, (1s,4s)-4-(3-bromoanilino)-1′,2′-dimethyl-1′,2′-dihydrospiro[cyclohexane-1,3′-indole]-4-carboxylic acid] | 19.9
COc1ccc(C2Cc3ccccc3[C@]23CC[C@@](Nc2cccc(Cl)c2)(C(=O)O)CC3)cc1C (single isomer, unassigned) [Example 243, (1r,4r)-4-(3-chloroanilino)-2′-(4-methoxy-3-methylphenyl)-2′,3′-dihydrospiro[cyclohexane-1,1′-indene]-4-carboxylic acid] | 0.273
O=C(O)[C@]1(Nc2cccc(Cl)c2)CC[C@]2(CC1)C(C1=CCCCC1)=Cc1ccccc12 [Example 275, (1r,4r)-4-(3-chloroanilino)-2′-(cyclohex-1-en-1-yl)spiro[cyclohexane-1,1′-indene]-4-carboxylic acid] | 10.1
O=C(O)C1(Nc2cccc(Cl)c2)CCC2(CC1)c1ccccc1CC2CCCOc1ncnc2ccsc12 (stereo not drawn) [Example 437, (1r,4r)-4-(3-chloroanilino)-2′-{3-[(thieno[3,2-d]pyrimidin-4-yl)oxy]propyl}-2′,3′-dihydrospiro[cyclohexane-1,1′-indene]-4-carboxylic acid] | 0.0776
O=C(O)[C@]1(Nc2cccc(Cl)c2)CC[C@@]2(CC1)c1ccccc1CC2c1cccc2c1OCC2 (single isomer, unassigned) [Example 295, (1r,4r)-4-(3-chloroanilino)-2′-(2,3-dihydro-1-benzofuran-7-yl)-2′,3′-dihydrospiro[cyclohexane-1,1′-indene]-4-carboxylic acid] | 0.643
O=C(O)[C@]1(Nc2cccc(Cl)c2)CC[C@@]2(CC1)c1ccccc1C[C@@H]2c1cccc(OCc2ccccc2)c1 [Example 333, (1r,2′R,4R)-2′-[3-(benzyloxy)phenyl]-4-(3-chloroanilino)-2′,3′-dihydrospiro[cyclohexane-1,1′-indene]-4-carboxylic acid] | 13.2
O=C(O)[C@]1(Nc2cccc(Cl)c2)CC[C@@]2(CC1)c1ccccc1CC2[C@H]1C[C@@H]1COc1ccccc1 (relative stereo) [Example 110, (1r,4r)-4-(3-chloroanilino)-2′-[(1R*,2S*)-2-(phenoxymethyl)cyclopropyl]-2′,3′-dihydrospiro[cyclohexane-1,1′-indene]-4-carboxylic acid] | 8.45
C[C@H](COc1ccnc2ccsc12)CC1Cc2ccccc2[C@]12CC[C@@](Nc1cccc(Cl)c1)(C(=O)O)CC2 (stereo partly drawn) [Example 592, (1r,4S)-4-(3-chloroanilino)-2′-{(2S)-2-methyl-3-[(thieno[3,2-b]pyridin-7-yl)oxy]propyl}-2′,3′-dihydrospiro[cyclohexane-1,1′-indene]-4-carboxylic acid] | 0.71
Cc1noc(C)c1C1Cc2ccccc2C12CCC(Nc1cccc(Br)c1)(C(=O)O)CC2 (single isomer, unassigned) [Example 231, 4-(3-bromoanilino)-2′-(3,5-dimethyl-1,2-oxazol-4-yl)-2′,3′-dihydrospiro[cyclohexane-1,1′-indene]-4-carboxylic acid] | 7.72
O=C(O)[C@]1(Nc2cccc(Cl)c2)CC[C@]2(CC1)C(C1=CCCC1)=Cc1ccccc12 [Example 277, (1r,4r)-4-(3-chloroanilino)-2′-(cyclopent-1-en-1-yl)spiro[cyclohexane-1,1′-indene]-4-carboxylic acid] | 6.09
O=C(O)[C@]1(Nc2cccc(Cl)c2)CC[C@@]2(CC1)c1ccccc1CC2[C@H]1C[C@@H]1COc1ccnc2ccsc12 (single isomer, unassigned) [Example 106, (1r,4r)-4-(3-chloroanilino)-2′-[(1R*,2S*)-2-{[(thieno[3,2-b]pyridin-7-yl)oxy]methyl}cyclopropyl]-2′,3′-dihydrospiro[cyclohexane-1,1′-indene]-4-carboxylic acid] | 2.26
O=C(O)[C@]1(Nc2cccc(Cl)c2)CC[C@@]2(CC1)c1ccccc1CC2CCCOc1ccc2c(c1)OCO2 (stereo partly drawn) [Example 428, (1r,4r)-2′-{3-[(2H-1,3-benzodioxol-5-yl)oxy]propyl}-4-(3-chloroanilino)-2′,3′-dihydrospiro[cyclohexane-1,1′-indene]-4-carboxylic acid] | 0.393
O=C(O)[C@]1(Nc2cccc(Cl)c2)CC[C@@]2(CC1)c1ccccc1CC2c1coc2ccccc12 (single isomer, unassigned) [Example 284, (1r,4r)-2′-(1-benzofuran-3-yl)-4-(3-chloroanilino)-2′,3′-dihydrospiro[cyclohexane-1,1′-indene]-4-carboxylic acid] | 1.22
O=C(O)[C@]1(Nc2cccc(Cl)c2)CC[C@]2(CC1)C(c1cccc(Oc3ccncc3)c1)=Cc1ccccc12 [Example 377, (1s,4s)-4-(3-chloroanilino)-2′-{3-[(pyridin-4-yl)oxy]phenyl}spiro[cyclohexane-1,1′-indene]-4-carboxylic acid] | 0.0743
O=C(O)[C@]1(Nc2cccc(Cl)c2)CC[C@]2(CC1)C(Cc1ccccc1)=Cc1ccccc12 [Example 168, (1r,4r)-2′-benzyl-4-(3-chloroanilino)spiro[cyclohexane-1,1′-indene]-4-carboxylic acid] | 1.67
